Measured values: patent publication US11292807B2 (OCEANS LTD., priority 2015, dated 2022)
Like-named read-outs stand apart in the source and are kept apart here.

Experiments:
[1] = tested on: THP-1 (acute monocytic leukemia); assay: CIMA assay, cell viability, THP-1; settings: for Fold change in viability AVG: THP-1
PC3 = assay: CIMA assay, cell viability, PC3; settings: for Fold change in viability AVG: PC3
MDA-MB [2] = settings: MDA-MB
[3] = CIMA assay, cell viability, CCD1079SK; settings: human, Average cell viability, CCD
[4] = tested on: CCD1079SK (fibroblast, noncancerous but proliferating); assay: CIMA assay, cell viability, CCD1079SK; settings: CCD
MDA-MB [5] = assay: cells; settings: Homo sapiens, read-out: Average cell viability, MDA-MB
[6] = tested on: U373 (glioblastoma-astrocytoma); assay: CIMA assay, cell viability, U373; settings: for Fold change in viability AVG: U373
Method: (§1) Stock solutions of the extracts were prepared in dimethylsulfoxide (DMSO) at 10 mg/mL and stored in 200 μl aliquots at −20° C. until analysis. This preparation ensured that the DMSO delivered to cells in culture never exceeded 1%.
(§2) Prepared extracts were assessed following chronic exposure conditions in which cells were seeded at 2×10^3 cells/well (96 well-plate) and incubated with test compounds for 72 h. Each compound was evaluated over a range of concentrations (0, 10, 25, 50 or 100 μg/ml). Cell proliferation was initially assessed using a standard colorimetric indicator of metabolic activity (CIMA) assay. In this assay, tetrazole reduction was evaluated as a measure of metabolic function that evaluates mitochondrial activity to determine the extent of cell proliferation within a culture. This assay is based on the reduction of yellow tetrazolium salt to purple formazan by mitochondrial reductases enzyme in viable cells, resulting in a color changed that confers a change in absorbance.

A549 (lung carcinoma) = assay: CIMA assay (colorimetric indicator of metabolic activity), cell viability, A549; settings: for Fold change in viability AVG: A549
[7] = tested on: SKOV3 (ovarian adenocarcinoma); assay: CIMA assay, cell viability, SKOV3; settings: for Fold change in viability AVG: SKOV
Method: as §1, §2

In the case of `CC/C=C\C/C=C\C/C=C\C/C=C\CCC(=O)OC(COC(=O)CCCCCCC/C=C\C/C=C\C/C=C\CC)COC1OC(CO)C(O)C(O)C1O` (stereo not shown) [Compound 14, MGDG C18:3/C16:4], the viability at 1 µg/mL ([1]; Homo sapiens, THP-1, read-out: Average cell viability, THP-1, 1 ug/mL) was 99%, the viability at 10 µg/mL ([1]; Homo sapiens, THP-1, read-out: Average cell viability, THP-1, 10 ug/mL) was 100% and the viability at 50 µg/mL ([1]; Homo sapiens, THP-1, read-out: Average cell viability, THP-1, 50 ug/mL) was 62%. The viability at 100 µg/mL ([1]; Homo sapiens, THP-1, read-out: Average cell viability, THP-1, 100 ug/mL) was 51%, the “THP-1 AVG” value ([1]; THP-1, sample at 1 ug/mL) was 1.13 and the “THP-1 AVG” value ([1]; THP-1, sample at 10 ug/mL) was 1.14. For the same molecule, the “THP-1 AVG” value ([1]; THP-1, sample at 50 ug/mL) was 0.70, the “THP-1 AVG” value ([1]; THP-1, sample at 100 ug/mL) was 0.58 and the “Fold change in viability AVG” value ([1]; 1 ug/mL) was 1.12. For the same molecule, the “Fold change in viability AVG” value ([1]; 10 ug/mL) was 1.14, the “Fold change in viability AVG” value ([1]; 50 ug/mL) was 0.70 and the “Fold change in viability AVG” value ([1]; 100 ug/mL) was 0.58. For the same molecule, the viability at 1 µg/mL (PC3; Homo sapiens, PC-3, read-out: Average cell viability, PC3, 1 ug/mL) was 103%, the viability at 10 µg/mL (PC3; Homo sapiens, PC-3, read-out: Average cell viability, PC3, 10 ug/mL) was 98% and the viability at 50 µg/mL (PC3; Homo sapiens, PC-3, read-out: Average cell viability, PC3, 50 ug/mL) was 66%. For the same molecule, the viability at 100 µg/mL (PC3; Homo sapiens, PC-3, read-out: Average cell viability, PC3, 100 ug/mL) was 12%, the “PC3 AVG” value (PC3; PC3, sample at 1 ug/mL) was 1.07 and the “PC3 AVG” value (PC3; PC3, sample at 10 ug/mL) was 1.01. The “PC3 AVG” value (PC3; PC3, sample at 50 ug/mL) was 0.68, the “PC3 AVG” value (PC3; PC3, sample at 100 ug/mL) was 0.13 and the “Fold change in viability AVG” value (PC3; 1 ug/mL) was 1.07. For the same molecule, the “Fold change in viability AVG” value (PC3; 10 ug/mL) was 1.01, the “Fold change in viability AVG” value (PC3; 50 ug/mL) was 0.68 and the “Fold change in viability AVG” value (PC3; 100 ug/mL) was 0.13. The “MDA-MB AVG” value (MDA-MB [2]; sample at 1 ug/mL) was 1.13, the “MDA-MB AVG” value (MDA-MB [2]; sample at 10 ug/mL) was 1.11 and the “MDA-MB AVG” value (MDA-MB [2]; sample at 50 ug/mL) was 0.74. The “MDA-MB AVG” value (MDA-MB [2]; sample at 100 ug/mL) was 0.20, the “Fold change in viability AVG” value (MDA-MB [2]; 1 ug/mL) was 1.13 and the “Fold change in viability AVG” value (MDA-MB [2]; 10 ug/mL) was 1.11. For the same molecule, the “Fold change in viability AVG” value (MDA-MB [2]; 50 ug/mL) was 0.74, the “Fold change in viability AVG” value (MDA-MB [2]; 100 ug/mL) was 0.20 and the viability at 72 h, 1 ug/mL ([3]; CCD1079SK fibroblast cells (noncancerous, proliferating), 1 ug/mL) was 102%. It also gave a viability at 72 h, 10 ug/mL ([3]; CCD1079SK fibroblast cells (noncancerous, proliferating), 10 ug/mL) of 96%, a viability at 72 h, 50 ug/mL ([3]; CCD1079SK fibroblasts (noncancerous, proliferating), 50 ug/mL) of 49% and a viability at 72 h, 100 ug/mL ([3]; CCD1079SK fibroblasts (noncancerous, proliferating), 100 ug/mL) of 19%. The “Fold change in viability AVG” value ([4]; 1 ug/mL) was 1.12, the “Fold change in viability AVG” value ([4]; 10 ug/mL) was 1.05 and the “Fold change in viability AVG” value ([4]; 50 ug/mL) was 0.54. The “Fold change in viability AVG” value ([4]; 100 ug/mL) was 0.21, the viability at 1 µg/mL (MDA-MB [5]; 1 ug/mL) was 104% and the viability at 10 µg/mL (MDA-MB [5]; 10 ug/mL) was 102%. For the same molecule, the viability at 50 µg/mL (MDA-MB [5]; 50 ug/mL) was 68%, the viability at 100 µg/mL (MDA-MB [5]; 100 ug/mL) was 18% and the viability at 1 µg/mL ([6]; Homo sapiens, U373 MG, read-out: Average cell viability, U373, 1 ug/mL) was 109%. For the same molecule, the viability at 10 µg/mL ([6]; Homo sapiens, U373 MG, read-out: Average cell viability, U373, 10 ug/mL) was 100%, the viability at 50 µg/mL ([6]; Homo sapiens, U373 MG, read-out: Average cell viability, U373, 50 ug/mL) was 41% and the viability at 100 µg/mL ([6]; Homo sapiens, U373 MG, read-out: Average cell viability, U373, 100 ug/mL) was 9%. The “U373 AVG” value ([6]; U373, sample at 1 ug/mL) was 1.10, the “U373 AVG” value ([6]; U373, sample at 10 ug/mL) was 1.02 and the “U373 AVG” value ([6]; U373, sample at 50 ug/mL) was 0.42. The “U373 AVG” value ([6]; U373, sample at 100 ug/mL) was 0.09, the “Fold change in viability AVG” value ([6]; 1 ug/mL) was 1.10 and the “Fold change in viability AVG” value ([6]; 10 ug/mL) was 1.02. The “Fold change in viability AVG” value ([6]; 50 ug/mL) was 0.42, the “Fold change in viability AVG” value ([6]; 100 ug/mL) was 0.09 and the “A549 AVG” value (A549 (lung carcinoma); A549, sample at 1 ug/mL) was 1.15. For the same molecule, the “A549 AVG” value (A549 (lung carcinoma); A549, sample at 10 ug/mL) was 1.18, the “A549 AVG” value (A549 (lung carcinoma); A549, sample at 50 ug/mL) was 1.03 and the “A549 AVG” value (A549 (lung carcinoma); A549, sample at 100 ug/mL) was 0.86. The “Fold change in viability AVG” value (A549 (lung carcinoma); 1 ug/mL) was 1.15, the “Fold change in viability AVG” value (A549 (lung carcinoma); 10 ug/mL) was 1.18 and the “Fold change in viability AVG” value (A549 (lung carcinoma); 50 ug/mL) was 1.03. For the same molecule, the “Fold change in viability AVG” value (A549 (lung carcinoma); 100 ug/mL) was 0.86, the viability at 1 µg/mL (A549 (lung carcinoma); Homo sapiens, A549, read-out: Average cell viability, A549, 1 ug/mL) was 99% and the viability at 10 µg/mL (A549 (lung carcinoma); Homo sapiens, A549, read-out: Average cell viability, A549, 10 ug/mL) was 101%. For the same molecule, the viability at 50 µg/mL (A549 (lung carcinoma); Homo sapiens, A549, read-out: Average cell viability, A549, 50 ug/mL) was 88%, the viability at 100 µg/mL (A549 (lung carcinoma); Homo sapiens, A549, read-out: Average cell viability, A549, 100 ug/mL) was 74% and the viability at 1 µg/mL ([7]; Homo sapiens, SK-OV-3, read-out: Average cell viability, SKOV, 1 ug/mL) was 109%. For the same molecule, the viability at 10 µg/mL ([7]; Homo sapiens, SK-OV-3, read-out: Average cell viability, SKOV, 10 ug/mL) was 97%, the viability at 50 µg/mL ([7]; Homo sapiens, SK-OV-3, read-out: Average cell viability, SKOV, 50 ug/mL) was 92% and the viability at 100 µg/mL ([7]; Homo sapiens, SK-OV-3, read-out: Average cell viability, SKOV, 100 ug/mL) was 67%. The “Fold change in viability AVG” value ([7]; 1 ug/mL) was 1.17, the “Fold change in viability AVG” value ([7]; 10 ug/mL) was 1.05 and the “Fold change in viability AVG” value ([7]; 50 ug/mL) was 0.89. For the same molecule, the “Fold change in viability AVG” value ([7]; 100 ug/mL) was 0.72.
